One data set concerns the target T1, δ-opioid receptor (DOR) (Homo sapiens, UniProt P41143).
T1 construct: host or cells: cAMP Hunter CHO-K1 OPRD1 Gαi cell line
Briefly: DOR agonist cAMP assay (HitHunter cAMP, forskolin-stimulated). The format is cell-based. In a few lines:
(§1)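 CHO-K1 Gαi cells expressing OPRM1 or OPRD1 were exposed 30 min at 37° C to 11-point threefold agonist dilutions, in duplicate, with 20 uM forskolin final. cAMP quantified by EFC chemiluminescent competitive immunoassay against cAMP standards. EC50 by four-parameter Hill nonlinear regression.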
(In general: Cyclic AMP is a second messenger, typically raised through Gs and lowered through Gi signalling.)

A short description of data set [1]: SIF assay (stability in simulated intestinal fluid). The note with it: for half-life at 20 μM: simulated intestinal fluid (SIF) with pancreatin, simulated intestinal fluid, pH 6.8, pancreatin, 37° C. The class given is in vitro ADME. On the procedure:
SIF was prepared by adding 6.8 g of monobasic potassium phosphate and 10.0 g of pancreatin to 1.0 L of water. After dissolution, the pH was adjusted to 6.8 using NaOH. DMSO stocks (2 mM) were prepared for each of the opioid agonist peptides. Aliquots of the DMSO solutions were dosed into […], each containing 0.5 mL of SIF, which was pre-warmed to 37° C. The final opioid agonist peptide concentration was 20 μM. The vials were kept in a benchtop Thermomixer® for the duration of the experiment. At each timepoint (0, 5, 10, 20, 40, 60, or 360 minutes or 24 hours), 1.0 mL of acetonitrile containing 1% formic acid was added to one vial to terminate the reaction. Samples were stored at 4° C. until the end of the experiment. After the final timepoint was sampled, the tubes were mixed and then centrifuged at 3,000 rpm for 10 minutes. Aliquots of the supernatant were removed, diluted 1:1 into distilled water containing an internal standard, and analyzed by LCMS/MS. The percent of the opioid agonist peptide remaining at each timepoint was calculated based on the peak area response ratio of opioid agonist peptide to the internal standard. Time 0 was set to 100%, and all later timepoints were calculated relative to time 0. Half-lives were calculated by fitting to a first-order exponential decay equation using Graph pad.

Data set [2] in a line: SGF assay (stability in simulated gastric fluid). The class given is in vitro ADME. The conditions noted are these: pig, simulated gastric fluid (SGF) with porcine pepsin, pH 2, pepsin, 37° C. Here is the method: SGF was prepared by adding 20 mg NaCl, 32 mg porcine pepsin (MP Biochemicals, catalog 02102599), and 70 μl HCl to 10 ml water (final pH=2). Aliquots of SGF (0.5 ml each) were pre-warmed at 37° C. To start the reaction, 1 μl of opioid agonist peptide stock solution (10 mM in DMSO) was added to 0.5 ml SGF and thoroughly mixed such that the final peptide concentration was 20 μM. The reactions were incubated at 37° C. with gentle shaking.
At each timepoint (0, 15, 30, 60 min) 50 µl aliquots were removed and added to 200 ul of acetonitrile containing 0.1% formic acid to quench the reaction. Samples were stored at 4° C. until the end of the experiment and centrifuged at 10,000 rpm for 5 minutes. Aliquots of the supernatant were removed, diluted 1:1 into distilled water containing internal standard, and analyzed by LCMS/MS. The percent of the opioid agonist peptide remaining at each timepoint was calculated based on the peak area response ratio of the opioid agonist peptide to the internal standard. Time 0 was set to 100%, and all later timepoints were calculated relative to time 0. Half-lives were calculated by fitting to a first-order exponential decay equation using GraphPad.

For a further data set, the target named is T2, μ-opioid receptor (MOR) (Homo sapiens, UniProt P35372).
T2 construct: host or cells: cAMP Hunter CHO-K1 OPRM1 Gαi cell line
T2 sequence (P35372 whole entry): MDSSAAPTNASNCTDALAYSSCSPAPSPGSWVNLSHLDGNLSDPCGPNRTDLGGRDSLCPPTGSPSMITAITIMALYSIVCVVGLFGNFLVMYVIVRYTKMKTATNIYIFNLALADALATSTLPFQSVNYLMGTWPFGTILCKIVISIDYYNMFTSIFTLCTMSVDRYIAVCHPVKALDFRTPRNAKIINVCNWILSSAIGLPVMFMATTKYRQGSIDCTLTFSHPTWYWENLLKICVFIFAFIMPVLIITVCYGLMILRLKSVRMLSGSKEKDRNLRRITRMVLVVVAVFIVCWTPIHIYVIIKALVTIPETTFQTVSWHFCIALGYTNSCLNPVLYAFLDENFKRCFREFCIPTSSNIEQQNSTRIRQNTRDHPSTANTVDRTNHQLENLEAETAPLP
Briefly: MOR agonist cAMP assay (HitHunter cAMP, forskolin-stimulated). The format is cell-based. In a few lines: as §1

Square brackets hold non-standard residues; d marks the D form. Peptide text beside a SMILES is read from it. Dmt = Cc1cc(O)cc(C)c1C[C@H](N)C(=O)O; β3hF = N[C@H](CC(=O)O)Cc1ccccc1; Sar = CNCC(=O)O

A word on the EC50: it is the concentration giving half of the maximal effect. Lower therefore signals higher potency in that assay. For orientation: half-life means the time needed for the level to fall by half in the phase considered. A low value points to fast loss.

T1 sequence (P41143 whole entry): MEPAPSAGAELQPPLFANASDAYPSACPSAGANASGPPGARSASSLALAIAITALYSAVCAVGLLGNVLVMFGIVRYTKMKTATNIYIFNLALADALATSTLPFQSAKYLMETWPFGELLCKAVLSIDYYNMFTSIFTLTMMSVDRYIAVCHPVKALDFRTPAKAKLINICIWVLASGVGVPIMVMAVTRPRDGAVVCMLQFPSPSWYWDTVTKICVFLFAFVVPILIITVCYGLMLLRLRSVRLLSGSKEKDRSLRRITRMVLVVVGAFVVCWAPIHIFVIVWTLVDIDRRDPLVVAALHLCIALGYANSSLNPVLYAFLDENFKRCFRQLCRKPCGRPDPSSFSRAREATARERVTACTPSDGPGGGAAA

`C[C@@H](NC(=O)[C@@H](N)Cc1ccc(O)c(Cl)c1)C(=O)NCC(=O)N[C@H](CC(=O)N(C)CC(N)=O)Cc1ccccc1` [compound 55] registered an EC50 on δ-opioid receptor (DOR) of 10 to 50 nM. For the same molecule, the half-life at 20 μM in data set [1] was 6 to 24 h.
Turning to `Cc1cc(C(N)=O)cc(C)c1C[C@H](N)C(=O)N[C@H](C)C(=O)NCC(=O)N[C@H](CC(=O)N(C)CC(=O)O)Cc1ccccc1` [compound 79], the EC50 at δ-opioid receptor (DOR) and at μ-opioid receptor (MOR) was less than 1 nM each time. The half-life at 20 μM in data set [2] and in data set [1] was greater than 24 h throughout.
Take `CCCC[C@@H](C(=O)O)N(C)C(=O)C[C@H](Cc1ccccc1C)NC(=O)CNC(=O)[C@@H](C)NC(=O)[C@@H](N)Cc1c(C)cc(O)cc1C` [compound 140]: the EC50 at δ-opioid receptor (DOR) and at μ-opioid receptor (MOR) was less than 1 nM each time. In addition, the half-life at 20 μM in data set [2] and in data set [1] was 6 to 24 h throughout.
Consider `Cc1cc(O)cc(C)c1C[C@H](N)C(=O)N[C@H](C)C(=O)NCC(=O)N[C@H](CC(=O)N(CC(N)=O)Cc1ccccc1)Cc1ccccc1` [compound 118], for which the EC50 at δ-opioid receptor (DOR) and on μ-opioid receptor (MOR) was less than 1 nM in each case. In addition, the half-life at 20 μM in data set [2] and in data set [1] was greater than 24 h in each case.
On to `Cc1cc(O)cc(C)c1C[C@H](N)C(=O)N[C@H](Cc1ccc(O)cc1)C(=O)NCC(=O)N[C@H](CC(=O)N(C)CC(N)=O)Cc1ccccc1` [compound 84], for which the EC50 at δ-opioid receptor (DOR) and at μ-opioid receptor (MOR) was less than 1 nM throughout. For the same molecule, the half-life at 20 μM in data set [2] and in data set [1] was greater than 24 h throughout.
Take `Cc1cc(O)cc(C)c1C[C@H](N)C(=O)N[C@H](C)C(=O)NCC(=O)N[C@H](CC(=O)N(CCCOC(C)C)CC(N)=O)Cc1ccccc1` [compound 117]: the EC50 at δ-opioid receptor (DOR) is less than 1 nM. The half-life at 20 μM in data set [2] and in data set [1] was greater than 24 h each time.
For the molecule `Cc1cc(O)cc(C)c1C[C@H](N)C(=O)N[C@H](C)C(=O)N[C@@H](C)C(=O)N[C@H](CC(=O)N(C)CC(N)=O)Cc1ccccc1` [compound 66] (H-[Dmt][dA]A[β3hF][Sar]-NH2), the half-life at 20 μM is 0.167 to 6 h in data set [2] and greater than 24 h in data set [1].
With `Cc1cc(O)cc(C)c1C[C@H](N)C(=O)N[C@H](C)C(=O)NC(C)(C)C(=O)N[C@H](CC(=O)N(C)CC(N)=O)Cc1ccccc1` [compound 72], the EC50 at δ-opioid receptor (DOR) and at μ-opioid receptor (MOR) was less than 1 nM in each case. In addition, the half-life at 20 μM in data set [2] was 0.167 to 6 h; in data set [1], greater than 24 h.
In the case of `CCCC[C@@H](C(=O)O)N(C)C(=O)C[C@H](Cc1ccc(F)cc1)NC(=O)CNC(=O)[C@@H](C)NC(=O)[C@@H](N)Cc1c(C)cc(C(N)=O)cc1C` [compound 166], the EC50 at δ-opioid receptor (DOR) and on μ-opioid receptor (MOR) was less than 1 nM throughout. For the same molecule, the half-life at 20 μM in data set [2] and in data set [1] was greater than 24 h in each case.
As to `C[C@@H](NC(=O)[C@@H](N)Cc1cccc(O)c1)C(=O)NCC(=O)N[C@H](CC(=O)N(C)CC(N)=O)Cc1ccccc1` [compound 56], the EC50 on δ-opioid receptor (DOR) was greater than 200 nM. Further, the half-life at 20 μM in data set [1] was 6 to 24 h.
On to `Cc1cc(O)cc(C)c1C[C@H](N)C(=O)N[C@@H](C(=O)NCC(=O)N[C@H](CC(=O)N(C)CC(N)=O)Cc1ccccc1)[C@H](C)O` [compound 82], for which the EC50 at δ-opioid receptor (DOR) and at μ-opioid receptor (MOR) was less than 1 nM each time. In addition, the half-life at 20 μM in data set [2] and in data set [1] was greater than 24 h each time.
As for `Cc1cc(O)cc(C)c1C[C@H](N)C(=O)N[C@H](CC(=O)O)C(=O)NCC(=O)N[C@H](CC(=O)NCC(N)=O)Cc1ccccc1` [compound 179] (H-[Dmt][dD]G[β3hF]G-NH2), the concentration giving a half-maximal response (EC50) at δ-opioid receptor (DOR) and at μ-opioid receptor (MOR) was less than 1 nM each time. The half-life at 20 μM in data set [2] and in data set [1] was greater than 24 h throughout.
On δ-opioid receptor (DOR), `Cc1cc(O)cc(C)c1C[C@H](N)C(=O)N[C@H](C)C(=O)NCC(=O)N[C@H](CC(=O)N(CCC(C)C)CC(N)=O)Cc1ccccc1` [compound 116] had an EC50 of less than 1 nM. In addition, the half-life at 20 μM in data set [2] and in data set [1] was greater than 24 h throughout.
Turning to `Cc1cc(C(N)=O)cc(C)c1C[C@H](N)C(=O)N[C@H](C)C(=O)NCC(=O)N[C@H](CC(=O)N(C)CC(N)=O)Cc1ccccc1` [Seq. ID 70, H-Phe(2,6-dimethyl-4-CONH2)-a-G-bhF-Sar-NH2], the “SIF (min)” value in data set [1] (Table 4, SIF half-life) was “**** (for SIF half-life values, **** indicates >1290)”.
On δ-opioid receptor (DOR), `C[C@@H](NC(=O)[C@@H](N)Cc1ccc(O)c(C(C)(C)C)c1)C(=O)NCC(=O)N[C@H](CC(=O)N(C)CC(N)=O)Cc1ccccc1` [compound 52] registered an EC50 greater than 200 nM. In addition, the half-life at 20 μM in data set [1] is 6 to 24 h.
The molecule `Cc1cc(O)cc(C)c1C[C@H](N)C(=O)N[C@H](C)C(=O)NCC(=O)N[C@H](CC(=O)NCC(N)=O)Cc1ccccc1` [compound 112] showed an EC50 on δ-opioid receptor (DOR) of less than 1 nM. Moreover, the half-life at 20 μM in data set [2] and in data set [1] was greater than 24 h each time.
In the case of `Cc1cc(O)cc(C)c1C[C@H](N)C(=O)N[C@H](C)C(=O)NCC(=O)N[C@H](CC(=O)N(C)[C@H](C(=O)O)c1ccccc1)Cc1ccccc1` [compound 157], the EC50 at δ-opioid receptor (DOR) and at μ-opioid receptor (MOR) was less than 1 nM throughout. For the same molecule, the half-life at 20 μM in data set [1] is greater than 24 h.
Consider `CN[C@@H](Cc1ccc(O)cc1)C(=O)N[C@H](C)C(=O)NCC(=O)N[C@H](CC(=O)N(C)CC(N)=O)Cc1ccccc1` [compound 51], for which the EC50 on δ-opioid receptor (DOR) is greater than 200 nM. Besides, the half-life at 20 μM in data set [1] was 6 to 24 h.
Take `Cc1cc(O)cc(C)c1C[C@H](N)C(=O)N[C@H](C)C(=O)NCC(=O)N[C@H](CC(=O)N(C)[C@@H](CC(C)C)C(=O)O)Cc1ccccc1` [compound 155]: the half-life at 20 μM in data set [2] and in data set [1] was greater than 24 h each time. The EC50 at μ-opioid receptor (MOR) is less than 1 nM.
`C[C@@H](NC(=O)[C@@H](N)Cc1ccc(O)c(O)c1)C(=O)NCC(=O)N[C@H](CC(=O)N(C)CC(N)=O)Cc1ccccc1` [compound 58] showed a half-life at 20 μM in data set [1] of 6 to 24 h.
Molecule `Cc1cc(O)cc(C)c1C[C@H](N)C(=O)N[C@H](C)C(=O)NCC(=O)N[C@H](CC(=O)N(C)CC(=O)O)Cc1ccccc1` [compound 87] yielded an EC50 on δ-opioid receptor (DOR) of less than 1 nM. For the same molecule, the half-life at 20 μM was 6 to 24 h in data set [2] and greater than 24 h in data set [1].
On δ-opioid receptor (DOR), `C[C@@H](NC(=O)[C@@H](N)CCc1ccc(O)cc1)C(=O)NCC(=O)N[C@H](CC(=O)N(C)CC(N)=O)Cc1ccccc1` [compound 54] showed an EC50 greater than 200 nM. For the same molecule, the half-life at 20 μM in data set [1] was 6 to 24 h.
As for `CCCC[C@@H](C(=O)O)N(C)C(=O)C[C@H](Cc1ccccc1)NC(=O)CNC(=O)[C@@H](C)NC(=O)[C@@H](N)Cc1c(C)cc(O)cc1C` [compound 159], the half-life at 20 μM in data set [2] and in data set [1] was greater than 24 h throughout. Besides, at μ-opioid receptor (MOR), the EC50 was less than 1 nM.
Take `C[C@@H](NC(=O)[C@@H](N)Cc1ccc(O)c(F)c1)C(=O)NCC(=O)N[C@H](CC(=O)N(C)CC(N)=O)Cc1ccccc1` [compound 57]: the EC50 on δ-opioid receptor (DOR) is 1 to 10 nM. For the same molecule, the half-life at 20 μM is greater than 24 h in data set [2] and 6 to 24 h in data set [1].
In turn, `C[C@@H](NC(=O)C[C@@H](N)Cc1ccc(O)cc1)C(=O)NCC(=O)N[C@H](CC(=O)N(C)CC(N)=O)Cc1ccccc1` [compound 50] returned an EC50 at δ-opioid receptor (DOR) greater than 200 nM. The molecule further returned a half-life at 20 μM in data set [1] of 6 to 24 h.
On the same counts, the results for `C[C@@H](NC(=O)[C@H](N)Cc1ccc(O)cc1)C(=O)NCC(=O)N[C@H](CC(=O)N(C)CC(N)=O)Cc1ccccc1` [compound 53] are greater than 200 nM and 6 to 24 h.
On δ-opioid receptor (DOR), `Cc1cc(O)cc(C)c1C[C@H](N)C(=O)N[C@H](C)C(=O)NCCC(=O)N[C@H](CC(=O)N(C)CC(N)=O)Cc1ccccc1` [compound 73] returned an EC50 of 50 to 200 nM. Besides, the results for the half-life at 20 μM in data set [2] and in data set [1] were 0.167 to 6 h and greater than 24 h, respectively.
Regarding `Cc1cc(O)cc(C)c1C[C@H](N)C(=O)N[C@@H](C(=O)NCC(=O)N[C@H](CC(=O)N(C)[C@@H](C)C(=O)O)Cc1ccccc1)[C@H](C)O` [compound 183], the EC50 at δ-opioid receptor (DOR) and on μ-opioid receptor (MOR) was less than 1 nM in each case.

The values above are taken from US10278957B2, “Opioid agonist peptides and uses thereof” (Protagonist Therapeutics, Inc., priority 2017, dated 2019).
